Data published in patent publication US9925398B2, “Angiogenic peptide” (NOVACELL TECHNOLOGY INC., priority 2008, dated 2018).

Legend:
HUVECs [1] = assay: Tube formation assay on Matrigel; assay type: cell-based, human; conditions: 24 h
Method: As described previously in M. S. Lee, et al., J Immunol 177 (2006), pp. 5585-5594, HUVECs were seeded on a layer of previously polymerized Matrigel with SFKLRY-NH2 (SEQ ID NO: 2), its scrambled sequence FYSRLK-NH2, S1P or VEGF in the presence or absence of VEGF neutralizing antibody. After 24 h of incubation, changes in cell morphology were observed through a phase-contrast microscope and photographed. To measure the formation of the capillary network, the total tube length per field was measured at 40× magnification with the scale. Three different fields were analyzed per well.
FIGS. 2A-2C show SFKLRY-NH2 (SEQ ID NO: 2) induces proliferation, migration, and tube formation in HUVECs. (A) The effect of SFKLRY-NH2 on proliferation of HUVECs. […] After 48 h of incubation, the activity of DNA synthesis was counted with a liquid scintillation counter. […] After wounding, HUVECs were incubated with indicated concentration of SFKLRY-NH2 (SEQ ID NO: 2) (0.1-10 μM) for 16 h and then migrated HUVECs beyond the reference line were counted. […] After incubation for 24 h, the tubular-like structures were photographed and the length of tube formation was measured. […]
FIGS. 6A-6B show anti-VEGF antibody suppress SFKLRY-NH2 (SEQ ID NO: 2)-induced tube formation in HUVECs. […] After incubation for 24 h, the tubular-like structures were photographed and the length of tube formation was measured. […]

HUVECs [2] = assay: [Ca2+]i increase in HUVECs; assay type: cell-based, human; conditions: 10 μM
Method: Cells were incubated with 4 μM Fura-2 AM and 250 μM sulfinpyrazone in serum-free DMEM medium at 37° C. for 30 min with continuous stirring. The cells were then washed with Locke's solution (M. Faehling, et al., FASEB J 16 (2002), pp. 1805-1807) and diluted to 2×10^6 cells/mL. 50 μL aliquots of cell suspension were added to each well of a 96-well plate, and the change in fluorescence ratio was determined at dual excitation wavelengths of 340 and 380 nm and emission wavelength of 500 nm following addition of peptides. Plates were read immediately following the addition of peptide pools, resulting in a time delay of approximately 5 s between peptide addition and detection by the FLEXstation (Molecular Devices). Negative and positive controls were run simultaneously with test samples to ensure that all samples were subjected to identical conditions. The calibration of the fluorescence ratio in terms of [Ca^2+]i was performed according to Grynkiewicz et al. J Biol Chem 260 (1985), pp. 3440-3450.
To verify that SFKLRY-NH2 (SEQ ID NO: 2) induces [Ca^2+]i increase in human endothelial cells, intracellular Ca^2+ mobilization in primary cultured human umbilical vein endothelial cells (HUVECs) were measured. Treatment with SFKLRY-NH2 (SEQ ID NO: 2) induced [Ca^2+]i increase in HUVECs with the half-maximal effect at 1.4±0.15 μM. […]

Rat aortic explants = assay: Aortic ring assay (vessel sprouting ex vivo); assay type: cell-based; conditions: 1 μM; 7 days
Method: The method developed by Nicosia and Ottinetti in In Vitro Cell Dev Biol 26 (1990), pp. 119-128 was used with some modifications. Aortas were harvested from 6-week-old Sprague-Dawley rats. After removing the surrounding fibro-adipose tissues, the rings were immersed in Matrigel in wells within culture dishes. The aortic rings were cultured (5% CO2, 37° C.) in serum-free M199 containing SFKLRY-NH2 (SEQ ID NO: 2), S1P, FYSRLK-NH2, or VEGF in the presence or absence of PTX or U73122. On day 7, sprouting from aortic explants was measured.
To address whether SFKLRY-NH2 (SEQ ID NO: 2) plays a role in sprouting of vascular endothelial cells ex vivo, aortic rings were analyzed in the presence of various stimuli including 1 μM SFKLRY-NH2 (SEQ ID NO: 2), 10 ng/mL VEGF, 10 nM S1P, and 10% FBS. […] Rat aortic explants in Matrigel were incubated with M-199 harboring SFKLRY-NH2 (SEQ ID NO: 2) (1 μM), FYSRLK-NH2 (1 μM), S1P (10 nM), VEGF (10 ng/mL), SFKLRY-NH2 (SEQ ID NO: 2) (1 μM) with U73122 (10 μM) or PTX (50 ng/mL), or 10% FBS and photographed after incubation for 7 days. Three independent experiments were then conducted, each in duplicate.

Compound | Tube-forming activity (length of tube formation) (HUVECs [1]; 100 nM) | Ca2+ mobilization (HUVECs [2]) | Tube-forming activity (length of tube formation) (HUVECs [1]; 10 μM) | vessel sprouting activity (outgrowth of endothelial cells) (Rat aortic explants)
CCCCCCCCCCCCC/C=C/[C@@H](O)[C@@H](N)COP(=O)(O)O [S1P, sphingosine-1-phosphate] | 19.69±0.32 | – | – | –
FYSRLK-NH2 | – | did not trigger Ca^2+ mobilization | 8.96±1.14 | negligible activity
